Laboratory results taken from BindingDB's records for patent US12414952 (Merck Sharp & Dohme, 2025).

Biological target: Adenosine receptor A2a (Homo sapiens, UniProt P29274)
Assay: A2a binding affinity assay C
Experimental: Method (C): Measurement of A2a Binding Affinity Using an Alternative Radioligand Binding AssayMembranes used in this procedure were made by washing cell cultures twice with DPBS buffer (Dulbecco's phosphate buffered saline without calcium and magnesium, ThermoFisher Scientific, Cat. No. A1285601), and harvesting the cell cultures by mechanical scraping. The cells were collected by centrifugation and re-suspended in 10 mM HEPES, pH 7.4 containing 0.1 mM benzamidine (Sigma, Cat. No. B6506) and 0.1 mM PMSF (phenylmethylsulfonyl fluoride, Sigma, Cat. No. 10837091001). Cells were freeze-thawed twice in a dry ice/ethanol bath and homogenized with 25 to 30 strokes in a glass dounce homogenizer (Wheaton, Cat. No. 357546). Membranes were pelleted at 40,000×g for 20 min at 4° C. and re-suspended in assay buffer (5 mM HEPES, pH 7.4, 5 mM MgCl2; supplemented with 0.1 mM benzamidine) at a protein concentration of 2.6 mg/mL. Protein concentration was determined by the Bio-Rad method (Bio-Rad, Cat. No. 5000002). […] After normalization to total and non-specific binding, the percent effect at each compound concentration was calculated. The plot of percent effect versus the log of compound concentration was analyzed electronically using a 4-parameter logistic fit based on the Levenberg-Marquardt algorithm to generate IC50 values.

Sequence of Adenosine receptor A2a (P29274 whole entry): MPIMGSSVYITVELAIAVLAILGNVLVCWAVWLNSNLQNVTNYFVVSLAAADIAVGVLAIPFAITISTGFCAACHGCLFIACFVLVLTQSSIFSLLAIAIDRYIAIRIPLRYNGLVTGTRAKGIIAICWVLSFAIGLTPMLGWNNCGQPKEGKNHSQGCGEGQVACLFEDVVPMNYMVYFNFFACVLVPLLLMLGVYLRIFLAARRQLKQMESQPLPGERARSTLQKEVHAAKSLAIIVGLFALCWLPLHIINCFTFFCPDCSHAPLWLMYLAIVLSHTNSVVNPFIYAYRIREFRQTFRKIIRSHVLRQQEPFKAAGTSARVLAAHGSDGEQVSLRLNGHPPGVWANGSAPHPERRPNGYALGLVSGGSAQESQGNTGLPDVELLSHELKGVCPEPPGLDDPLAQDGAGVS

IC50: 122 nM
Structure (SMILES): Nc1nc(-c2ccccc2)c(C2CC2)c2nc(CCN3CC(F)(F)C3)nn12 [US12414952, Example 20.6]
